Data as given in US11607443B2, “Therapeutic peptides” (UNIVERSITE TOULOUSE III-PAUL SABATIER, priority 2016, dated 2023).

Experiments:
Nude mice = assay: In vivo bone formation by subcutaneous implantation of MSCs + HA/β-TCP biomaterial in Nude mice
Procedure: For D. and F. conditions, mice also received regular injections (once a week) of either miPEP//125a-1 (D) or scramble miPEP (F) during the study. After 4 weeks, the mice are euthanized and the grafts were then isolated, fixed, included in methacrylate, cut and treated for histology. The cuts were scanned (NDPview) and bone formation (dark grey) is evaluated (A to F) and is also quantified (G) using the Fiji image analysis software and the total area of new bone is reported to the total area of the cut
For G, the y-axis indicates the percentage of bone formation and the statistical analyzes were performed with the paired t-test (p-value: * p<0.05; ** p<0.01 and *** p<0.001).
All experiments on animals were done in accordance with directive 2010/63/EU and after validation of protocols by the Animal Ethics Committee (Toulouse, N: 86/809 EEC). A total of 6-8 mice was used per group. The cells cultured osteo-induced or not according to the methods described elsewhere (see Example 1), were then suspended for 1 to 2 h in the culture medium also containing granules of biomaterials in the ratio of 2×10^6 cells/50 mg of biomaterial. These biomaterials were biphasic inorganic calcium phosphate (BCP), composed of hydroxyapatite (HA) and beta-tricalcium phosphate (β-TCP) in a ratio of 20/80, ranging in size from 0.5 to 1 mm (sold by Biomatlante, Vigneux de Bretagne, France). The porosity of these biomaterials (% vol) was 75±5% of pores of which 70% (0 to 10 μm), 20% (10 to 100 μm) and 10% (100 to 300 μm). They were sterilized by autoclaving.
The biomaterial alone has been implanted as a negative control. Female Nude mice (RjOrl: NMRI-Foxnnul/Foxnlnu) (Laboratoires Janvier, Saint-Berthevin, France) are generally anesthetized by inhalationn of isoflurane. Two implants (cells+biomaterials) are subcutaneously placed in the back of the mice on each side of the spine. After 4 weeks, the treated animals are sacrificed. The implants are then removed and fixed in a buffered 4% formalin solution. Some groups of mice will also receive regular injections (once a week) during the study either of the miPEP//125a-1 (SEQ ID NO: 11 752) or the control miPEP (scramble ScmiPEP//125a, SEQ ID NO: 11 758).
These implants were then decalcified in a solution of 4.13% EDTA/0.2% PFA in PBS for 96 hours at 50° C. using an automatic microwave for demineralization (KOS Histostation, Milestone Med. Corp. USA). The samples were dehydrated in ethanol and then butanol baths in an automatic dehydration apparatus (MicromMicrotech, Lyon, France). The samples were then immersed in paraphine (Histowax, Histolab, Gottenburg, Sweden). Fine sections ([…]) were made using a microtome (Leica RM2255, Leica Biosystems, Nanterre, France). The sections were stained by the Masson trichrome technique and the collagen in light green.
The photos were obtained by a scan of each cut (NanoZoomer, Hamamatsu, Photonics, Hamamatsu City, Shizuoka, Japan) and observed virtually (NDP view, Hamamatsu). The histomorphometry of the images was done using the ImageJ software and the neoformed bone percentage was calculated by explant area. 3 to 4 sections per explant were analyzed and quantified.

mesenchymal stem cells = assay: Expression of osteoblast marker genes (iBSP, PTHR1, STMN2, OSTERIX) in mesenchymal stem cells by quantitative RT-PCR; assay type: cell-based, human; conditions: for osteoblast differentiation of mesenchymal stem cells: conclusion from increased expression of osteoblast marker genes
Procedure: The respective effects of miPEP 125a-1 and miPEP 145-2 on differentiation of mesenchymal stem cells were analyzed by measuring the expression of the iBSP, PTHR1, STMN2 and OSTERIX genes that correspond to markers of osteogenesis and of osteoblast differentiation (Chiellini et al., Biochem Biophys Res Commun, 374(1):64-8, 2008; Cordonnier et al., Tissue Eng, 17(3): 249-259, 2011).
The experiments were carried out with two fragments of 10 amino acids respectively corresponding to the N-terminal part of the miPEP 125a-1 (=miPEP//125a-1 fragment) and to the N-terminal part of the miPEP 145-2 (=fragment miPEP//145-2).
Mesenschymal stem cells from 4 different donors were cultured for 24 hours in PROLIF medium (αMEM+10% FCS) with or without miPEP//then for 3 days in DIF+BMP4 medium (αMEM+2% FCS+b-Glycerophosphate+Ascorbic acid+BMP4), DIF ΔBMP4 medium (αMEM+2% FCS+b-Glycerophosphate+Ascorbic acid) or PROLIF medium (αMEM+10% FCS), with or without miPEP//.
The expression of the iBSP, PTHR1, STMN2 and OSTERIX genes was then measured in mesenchymal stem cells cultured in the presence or absence of a miPEP*.
a. Composition of Culture Media • Proliferation medium (PROLIF): αMEM+10% FBS+1% P/S • Differentiation medium+BMP4 (DIF+BMP4): αMEM+2% FBS+1% P/S+βglycerophosphate (10 mM)+Ascorbic acid (50 μM)+BMP4 (50 ng/mL) • Differentiation medium without BMP4 (DIF ΔBMP4): αMEM+2% FBS+1% P/S+βglycerophosphate (10 mM)+Ascorbic acid (50 μM)
The miPEP//145-2 was synthesized by Smartbioscience and dissolved at 2 mM in water. The miPEP//125a-1 was synthesized by Smartbioscience and dissolved in water+0.1% ammonium.
The mesenchymal stem cells were seeded in 12-well plates at 70,000 cells/well in 1 mL of PROLIF medium. The cells were then incubated for 72 h at 37° C. in a humid atmosphere with 5% CO2.
After 72 hours of incubation, the cells were pre-treated with 100 μM of miPEP or “scramble” peptide diluted in PROLIF medium, and then incubated at 37° C. for 24 hours. In parallel, cells treated with PROLIF±water or water+0.1% ammonium medium were used as a negative control.
For 3 days, the cells were treated every 24 h with 100 μM of diluted miPEP either in DIF+BMP4 medium, or in DIF ΔBMP4 medium, or in PROLIF medium. Cells untreated or treated with water or water+0.1% ammonium were used as controls. The cells are incubated at 37° C.
After 3 days of treatment, the culture supernatants were removed, the cell mats were washed once with PBS, and then the plates were frozen at −80° C. until the total RNAs were extracted.
Total RNAs were extracted according to the supplier's recommendations with the miRNeasy microkit kit (Qiagen).
The RNAs were reverse transcribed with the High Capacity cDNA reverse transcription kit (Applied Biosystem). 600 ng of RNA were added to 2 μL of RT buffer (10×), 2 μL of Random primer (10×), 0.8 μL of dNTPs (25×), 0.5 μL of RNAse OUT (40 U/μL) and 1 μL of multiscribe reverse transcriptase (50 U/μL) in a total volume of 20 μL. The reverse transcription reaction was carried out at 25° C. for 10 min and then 42° C. for 2 h. The activity of the enzyme was stopped by incubating the mixture at 85° C. for 5 min.
The expression of osteoblastic transcription factors iBSP, PTHR1, STMN2 and OSTERIX was evaluated by quantitative RT-PCR with the SsoFast EvagGreen kit. For the RT-PCR reaction, 3 μL of […] diluted 1/8 were added to 1× of SsoFast EvaGreen, 10 μM of each primer and RNase free water in a final volume of 10 μL. The reaction was subjected to the following temperatures: 3 min pre-amplification at 95° C., 40 cycles of 10 sec at 95° C. and […] in a thermal cycler (CFX96 Real-time PCR detection system, Biorad). PPIA was used as a reference gene to normalize quantitative RT-PCR.
For all PCR reactions, two replicates were used for each biological sample.

miR16-1 = assay: Accumulation of miR16-1 in mesenchymal stem cells by RT-qPCR; assay type: cell-based, human; conditions: 10 μM for 3 h, MSCs from three patients, normalized to PPIA; FIG. 16
Procedure: The mesenchymal stem cells were treated with 10 μM of miPEP//15a-16-1-TAT, treated with 10 μM of control peptide (ScmiPEP//21-1) or untreated (NT) for 3 hours. The amount of miR16-1 precursor in cells has been measured by quantitative RT-PCR. The measurement of the amount of miR16-1 precursor was normalized with respect to the PPIA household gene. Analyzes and statistics were performed with the Mann-Withney test (p-value: * p<0.05; ** p<0.01 and *** p<0.001).
The effect of miPEP 15a-16-1 on miR16-1 accumulation was analyzed in mesenchymal stem cells (MSCs). The experiments were carried out with a fragment of 10 amino acids respectively corresponding to the N-terminal portion of the miPEP 15a-16-1 (=fragment miPEP//15 a-16-1).
MSCs from three different patients were treated with 10 μM of miPEP//15a-16-1 fused to TAT peptide (miPEP//15a-16-1-TAT) for 3 h, then the amount of miR16-1 was measured by RT-qPCR.
Peptides were synthesized by Smartbioscience and dissolved at 2 mM in water.
The MSCs were seeded in wells of 12-well plates at 72,900 cells per well under 1 mL of PROLIF medium. The cells were then incubated for 72 h at 37° C. in a humid atmosphere with 5% CO2. […]
The amount of miRNAs precursors in cells treated or not treated with miPEP was evaluated by quantitative RT-PCR with the SsoFast EvagGreen kit. […] PPIA was used as a reference gene to normalize quantitative RT-PCR. […]

[1] = DIF ΔBMP4 medium, 100 μM miPEP, 4 days, FIGS. 7 and 9
[2] = DIF ΔBMP4 medium, 100 μM miPEP, 4 days, FIGS. 8 and 10
[3] = DIF+BMP4 medium, 100 μM miPEP, 4 days, FIGS. 4 and 6

Row | Substance | bone formation, quantified neoformed bone (Nude mice; MSCs only pre-treated in vitro (C) versus untreated MSCs (B), p=0.0241, FIG. 17G) | bone formation, quantified neoformed bone (Nude mice; MSCs pre-treated in culture (C) versus MSCs pre-treated with scramble miPEP (E), p=0.0499, FIG. 17G) | bone formation, quantified neoformed bone (Nude mice; MSCs pre-treated in vitro and then in vivo (D) versus untreated MSCs (B), p=0.0203, FIG. 17G) | bone formation, qualitative (histology images) (Nude mice; MSCs pre-treated with miPEP (FIG. 17C-D) versus scramble miPEP (FIG. 17E-F), 4 weeks) | ability of human MSCs to form bone in vivo (Nude mice; MSCs previously treated in vitro) | effect of in vivo injection of the miPEP on the induction of bone formation (Nude mice; pre-treated MSCs plus weekly injection (D) versus MSCs only pre-treated (C), FIG. 17G) | expression of the STMN2 gene (mesenchymal stem cells; [1]) | expression of the OSTERIX gene (mesenchymal stem cells; [2]) | expression of the iBSP gene (mesenchymal stem cells; DIF+BMP4 medium, 100 μM miPEP, 4 days, FIG. 2) | expression of the PTHR1 gene (mesenchymal stem cells; DIF+BMP4 medium, 100 μM miPEP, 4 days, FIG. 3) | expression of the OSTERIX gene (mesenchymal stem cells; DIF+BMP4 medium, 100 μM miPEP, 4 days, FIG. 5) | expression of the STMN2 gene (mesenchymal stem cells; [3]) | osteoblast differentiation of mesenchymal stem cells (mesenchymal stem cells) | amount of miR 16-1 (miR16-1) | expression of the STMN2 gene (mesenchymal stem cells; PROLIF medium, 100 μM miPEP, 4 days, FIG. 11)
1 | MSLCLSPSLT [miPEP//125a-1, fragment of 10 amino acids corresponding to the N-terminal part of the miPEP 125a-1] | significantly higher | significantly more bone formation | significantly higher | greater | increased | without consequence | increases | increases | increases | increases | increases | increases | promote osteoblast differentiation | – | –
2 | MFKHRFFYMH-YGRKKRRQRRR [miPEP//15a-16-1-TAT] | – | – | – | – | – | – | – | – | – | – | – | – | – | increase | –
3 | MVGLNPPLWQ [miPEP//145-2, fragment of 10 amino acids corresponding to the N-terminal part of the miPEP 145-2] | – | – | – | – | – | – | increases | increases | – | – | – | increases | promote osteoblast differentiation | – | increases
